Test results from the supplement of paper PMC10307832.

Tests used:
Experiment in all cases: relative viability (nuclei count vs DMSO), 5 days (fraction); higher = more cells survive
[1] = compound: CC1=C(CC(=O)O)c2cc(F)ccc2/C1=C\c1ccc([S+](C)[O-])cc1 [Sulindac] + CC1(C)CCC(c2ccc(Cl)cc2)=C(CN2CCN(c3ccc(C(=O)NS(=O)(=O)c4ccc(N[C@H](CCN5CCOCC5)CSc5ccccc5)c(S(=O)(=O)C(F)(F)F)c4)cc3)CC2)C1 [Navitoclax] (partner 0.5 µM)
Procedure, shortened: (§1)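 After 5 days of treatment, lung cancer cells in 1536-well plates were fixed and stained in a single step (final 0.05% Triton X-100, 1% formaldehyde, 1 ug/ml Hoechst) and their nuclei counted on 4× images. Treatment had been applied by pin tool the day after seeding as one drug alone or as a fixed anchor-drug dose with five library-drug doses (not always all listed) in √10 steps. Relative viability is the nuclei count of treated wells divided by that of vehicle wells, and values are medians of duplicate plates.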

[2] = compound: CN[C@@H]1C[C@H]2O[C@@](C)([C@@H]1OC)n1c3ccccc3c3c4c(c5c6ccccc6n2c5c31)C(=O)NC4 [Staurosporine] + COc1cccc2cc(-c3nc([C@H]4CC[C@H](C(=O)O)CC4)n4ncnc(N)c34)[nH]c12 [OSI-027] (partner 0.5 µM)
Procedure, shortened: as §1

[3] = compound: O=c1[nH]cc(F)c(=O)[nH]1 [5-Fluorouracil] + CC(=O)Nc1cccc(-n2c(=O)n(C3CC3)c(=O)c3c(Nc4ccc(I)cc4F)n(C)c(=O)c(C)c32)c1 [Trametinib] (partner 0.02 µM)
Procedure, shortened: as §1

[4] = compound: O=c1[nH]cc(F)c(=O)[nH]1 [5-Fluorouracil] + C[C@]1(O)C[C@@H](c2nc(-c3ccc4ccc(-c5ccccc5)nc4c3)c3c(N)nccn32)C1 [Linsitinib] (partner 1 µM)
Procedure, shortened: as §1

Cell Line | relative viability ([1]; first compound 0.08 µM) | relative viability ([1]; first compound 0.253 µM) | relative viability ([1]; first compound 0.8 µM) | relative viability ([1]; first compound 2.53 µM) | relative viability ([1]; first compound 8 µM) | relative viability ([2]; first compound 0.005 µM) | relative viability ([2]; first compound 0.01581 µM) | relative viability ([2]; first compound 0.05 µM) | relative viability ([2]; first compound 0.1581 µM) | relative viability ([2]; first compound 0.5 µM) | relative viability ([3]; first compound 0.02 µM) | relative viability ([3]; first compound 0.2 µM) | relative viability ([3]; first compound 0.6325 µM) | relative viability ([3]; first compound 2 µM) | relative viability ([4]; first compound 0.02 µM) | relative viability ([4]; first compound 0.2 µM) | relative viability ([4]; first compound 0.6325 µM) | relative viability ([4]; first compound 2 µM)
NCI-H1915 | 0.873 | 0.808 | 0.78 | 0.742 | 0.832 | 0.448 | 0.115 | 0.193 | 0.0877 | 0.111 | 0.28 | 0.325 | 0.253 | 0.283 | 1.06 | 1.1 | 1.03 | 0.803
NCI-H650 | – | – | – | – | – | 0.34 | 0.271 | 0.257 | 0.277 | 0.255 | 0.914 | 0.701 | 0.407 | 0.341 | 0.866 | 0.691 | 0.511 | 0.394
NCI-H441 | 0.395 | 0.588 | 0.519 | 0.478 | 0.822 | 0.368 | 0.188 | 0.175 | 0.176 | 0.137 | 0.567 | 0.499 | 0.402 | 0.38 | 0.51 | 0.519 | 0.397 | 0.301
COR-L 105 | 0.591 | 0.987 | 0.901 | 0.722 | 0.962 | 0.279 | 0.173 | 0.269 | 0.266 | 0.183 | 0.458 | 0.505 | 0.408 | 0.393 | 0.976 | 0.862 | 0.937 | 0.575
NCI-H2009 | 1.21 | 1.2 | 1.29 | 1.18 | 1.34 | 0.233 | – | 0.163 | 0.123 | 0.082 | 0.255 | 0.271 | 0.247 | 0.215 | 1.16 | 1.15 | 0.934 | 0.735
NCI-H1437 | 1.28 | 1.1 | 1.05 | 1.1 | 1.38 | 0.744 | – | 0.587 | 0.183 | 0.181 | 0.364 | 0.247 | 0.22 | 0.18 | – | 0.26 | 0.169 | 0.119
PC-3 [JPC-3] | 0.971 | 0.758 | 0.786 | 0.762 | 0.752 | 0.678 | 0.295 | 0.39 | 0.303 | 0.229 | 0.784 | 0.823 | 0.782 | 0.661 | 0.947 | 0.949 | 0.888 | 0.698
NCI-H1703 | 1.14 | 0.978 | 0.877 | 1.1 | 1.45 | – | – | – | – | – | – | – | – | – | 0.665 | 1.16 | 0.856 | 0.484
NCI-H1944 | 0.958 | 1 | 1 | 1.07 | 1.23 | 0.322 | 0.153 | 0.257 | 0.166 | 0.119 | 0.412 | 0.333 | 0.244 | 0.195 | 1.13 | 1.19 | 0.497 | 0.27
